{"source": "patent US20230173064A1", "about": "“DETOXIFIED LIPOPOLYSACCHARIDES (LPS), NATURALLY NON-TOXIC LPS, AND USES THEREOF” (priority 2020, published 2023)", "key": {"rabbits [1]": {"tested_on": "rabbits", "experiment": "Rabbit Pyrogen Test (RPT), Ph. Eur. 5.1.10", "assay_type": "in vivo", "settings": "intravenous, sum of temperature rises of 3 rabbits not above 1.15° C.", "procedure": "Standardized Rabbit Pyrogen Test (RPT) were conducted according to European Pharmacopeia (Ph. Eur. 5.1.10). Product tested includes the naturally-occurring LPS B2 0.0 and LPS W1 0.0 and modified LPS B2 0.1, LPS B2 1.1 and LPS B2 1.2, as well as a non-GMP equivalent of the GLA from Merck (Avanti Polar Lipids).\nBriefly, groups of three rabbits, weighing 2.5 to 3 kg received one intravenous injection of the tested product in 1 mL/kg of body weight.\nFor each candidate, several dose ranges were tested from 0.1 to 1000 ng/kg. For each animal, the baseline rectal temperature was recorded. After 30 minutes, the rabbits were inoculated in the ear vein. Temperatures were recorded every 6.5 minutes for 3 hours. The rising temperature of the rabbit body temperature is that the highest body temperature measure within the 3 hours, minus the normal body temperature.\nSeveral doses of each candidates were tested to define their MNPD corresponding to the highest dose of a given product that can be administered in rabbits without inducing febrile reaction.\nThe pyrogenic activity of modified LPS B2 1.2 and LPS B2 1.3 was evaluated in vivo using the rabbit pyrogen test (RPT), as described in section 5.1.10 of the European Pharmacopeia. Both LPS were administered at the same dose of 450 ng/kg. Two experiments were performed for each modified LPS, with 3 rabbits/experiment (A1, A2 and A3)."}, "[2]": {"tested_on": "human B-lymphoma tumor model (RL cells) in CB17-SCID mice", "experiment": "Tumor rejection assay, therapeutic setting, human B-lymphoma RL cells engrafted in CB17-SCID mice", "assay_type": "in vivo, mouse", "settings": "for growth of established RL tumor cells: once a week for 3 weeks, LPS 0.5 mg/kg i.v., GLA 0.5 mg/kg, rituximab 30 mg/kg i.p., vs non-treated mice", "procedure": "The therapeutic efficacy of native (LPS B2 0.0 and LPS W1 0.0) and modified (LPS B2 0.1 and LPS B2 1.1) LPS, alone or in combination with rituximab, was analyzed in vivo against a human B-lymphoma tumor model (RL cells) using tumor rejection assays with a therapeutic setting in mice.\nCohort of CB17-SCID mice were engrafted subcutaneously in the abdominal right flank with 5×10^6 human B-lymphoma cells (RL cells). When the tumor volume had reached 100 mm^3 (at day 20), mice were randomized (n=6 mice/group), and the first treatment was administered.\n(§1) Mice were treated once a week for 3 weeks (at days 20, 27 and 34) with LPS B2 0.0, LPS B2 0.1, LPS B2 1.1 or LPS W1 0.0, used alone or in combination with rituximab (Genentech), an anti-human CD20 mAb.\n(§2) Groups of mice treated with GLA (Merck/Immune Design Corp.) administered either intravenously or intraperitoneally at 0.5 mg/kg, alone or in combination with rituximab, were included for comparison.\n(§3) LPS B2 0.0, LPS B2 0.1, LPS B2 1.1 or LPS W1 0.0 were administered intravenously at a dose of 0.5 mg/kg. Rituximab was administered intraperitoneally at a dose of 30 mg/kg.\nTumor-bearing mice injected with PBS (control) or rituximab alone were used as controls.\nThe tumor volume was measured twice a week (length x width) with a caliper. The tumor volume was determined using the formula: […]"}, "human PBMC (CryoBlood)": {"tested_on": "human PBMC (CryoBlood)", "settings": "literature / vendor values; cited from earlier work"}, "CB17-SCID mice": {"tested_on": "CB17-SCID mice", "experiment": "Tolerance of intravenous injection in tumor-bearing CB17-SCID mice", "assay_type": "in vivo, mouse", "settings": "0.5 mg/kg intravenously", "procedure": "as §1, §2, §3"}, "[3]": {"experiment": "Dynamic Light Scattering (DLS) aggregate size analysis in water and PBS suspensions", "assay_type": "physicochemical", "settings": "for average particle size: 0.2 mg/mL, DLS at 25° C., average of triplicate", "procedure": "Determination of aggregates sizes of LPS B2 0.0, LPS B2 0.1, LPS B2 1.1 and of synthetic GLA (PHAD®, from Avanti® Polar Lipids, Inc.) in aqueous and PBS suspensions was determined by Dynamic Light Scattering (DLS) using the Malvern Instruments Zetasizer Nano S90 with a scattering angle Θ=90°, incident laser wavelength λ=633 nm and temperature at 25° C.\nSamples for measurements were prepared as follows: 200 μg of dry samples in 4 mL glass vials were suspended in 1 mL of water or PBS. LONZA LAL Reagent water and Gibco PBS pH 7.4 (without CaCl2 or MgCl2) were used. The solvents were added progressively (250 μL plus 250 μL plus 500 μL). Three homogenization cycles were applied after each addition of a solvent, consisting in a 10-second sonication in a Fisher Scientific FB 15050 ultrasonic bath and 5 seconds vigorous vortex agitation.\n800 μL of each suspension were transferred to a disposable Eppendorf polystyrene semi-micro cuvette and DLS measurements were performed three times.\nLPS SM1 V1 was diluted in PBS pH 7.5 at 50 nmol/mL, and filtered through a 200-nm filter to remove large debris and aggregates. No nucleic acid contaminants and 2-4 μg/mL of protein contaminants were measured in the sample."}, "rabbits [4]": {"tested_on": "rabbits", "settings": "literature values; cited from earlier work"}, "[5]": {"tested_on": "Osa tumor cells in Sprague-Dawley (SD) rats", "experiment": "Tumor rejection assay, orthotopic rat model of osteosarcoma (Osa)", "assay_type": "in vivo", "procedure": "The therapeutic efficacy of the modified LPS B2 1.3 was analyzed in vivo against an orthotopic rat model of osteosarcoma (Osa) using tumor rejection assays with a therapeutic setting.\nSprague-Dawley (SD) rats were engrafted with Osa tumor cells in a paratibial position (left posterior tibia) after a periosteal abrasion. When tumors reached an average tumor volume of 150 mm^3, rats (n=3 to 8/group) were randomized into LPS B2 1.3, Doxorubicin (Doxo), or PBS (Control) groups.\nLPS B2 1.3 was administered intravenously into the tail vein, twice a week for 2 weeks at 0.25 mg/kg.\nDoxorubicin was administered intraperitoneally twice a week for 2 weeks at 1 mg/kg.\nTumor growth and survival were monitored twice a week. Tumor volumes V were assessed according to the following formula: […]\nwith L the longest and C the shortest tumor diameter."}}, "note": "Read-outs that look alike come from different tables or passages of the source."}
{"compound": "CCCCCCCCCCCCCC(=O)O[C@H](CCCCCCCCCCC)CC(=O)O[C@@H]1[C@@H](NC(=O)C[C@H](CCCCCCCCCCC)OC(=O)CCCCCCCCCCCCC)[C@H](OC[C@H]2O[C@H](O)[C@H](NC(=O)C[C@H](O)CCCCCCCCCCC)[C@@H](OC(=O)C[C@H](O)CCCCCCCCCCC)[C@@H]2O)O[C@H](CO)[C@H]1OP(=O)(O)O", "note": "[GLA, glucopyranosyl lipid A]", "values": [{"measurement": "MNPD (maximum non-pyrogenic dose)", "setting": "rabbits [1]", "result": 0.034, "unit": "µg/kg"}, {"measurement": "complete tumor regression", "setting": "[2]; GLA 0.5 mg/kg injected intraperitoneally in combination with rituximab", "result": 50, "unit": "%"}, {"measurement": "growth of established RL tumor cells", "setting": "[2]; single agent", "result": "did not show any impairment"}, {"measurement": "MAT (pyrogenicity as described in the literature)", "setting": "human PBMC (CryoBlood)", "result": "15700^2 EEU/μg"}, {"measurement": "altered aspect and behavior (toxicity) after intravenous administration", "setting": "CB17-SCID mice", "result": "had to be euthanized"}, {"measurement": "average particle size", "setting": "[3]; in PBS", "result": "about 529 nm"}, {"measurement": "DLS profile", "setting": "[3]; in water", "result": "monodisperse"}, {"measurement": "size of nano-particles / aggregates", "setting": "[3]; in water or PBS", "result": "> 500", "unit": "nm"}, {"measurement": "solubility / dispersibility", "setting": "[3]; in water or PBS, without dispersing reagents or special treatment", "result": "precipitates"}, {"measurement": "appearance of the final 0.2 mg/mL suspensions", "setting": "[3]; in water or in PBS", "result": "slightly opaque but homogeneous"}, {"measurement": "average particle size", "setting": "[3]; in water", "result": "about 544 nm"}]}
{"compound": "CCCCCCCCCCC[C@H](CC(=O)N[C@H]1[C@H](OC[C@H](NC(=O)C[C@@H](CCCCCCCCCCC)OCCCCCCCCCC)C(=O)O)O[C@H](CO)[C@@H](OP(=O)(O)O)[C@@H]1OC(=O)C[C@@H](CCCCCCCCCCC)OCCCCCCCCCC)OCCCCCCCCCC", "note": "[GSK1795-091]", "values": [{"measurement": "MNPD (maximum non-pyrogenic dose)", "setting": "rabbits [4]", "result": 0.0025, "unit": "µg/kg"}]}
{"compound": "COc1cccc2c1C(=O)c1c(O)c3c(c(O)c1C2=O)C[C@@](O)(C(=O)CO)C[C@@H]3O[C@H]1C[C@H](N)[C@H](O)[C@H](C)O1", "note": "[doxorubicin]", "values": [{"measurement": "growth of established Osa tumor cells", "setting": "[5]; LPS B2 1.3 0.25 mg/kg i.v., doxorubicin 1 mg/kg i.p., twice a week for 2 weeks, vs PBS (and doxorubicin)", "result": "No significant difference in tumor growth"}, {"measurement": "animals alive (survival)", "setting": "[5]; day 31", "result": 40, "unit": "%"}, {"measurement": "complete tumor regressions (complete responses)", "setting": "[5]; day 31", "result": "no tumor regressions"}]}
{"compound": "rituximab: an anti-CD20 monoclonal antibody (Genentech)", "values": [{"measurement": "complete tumor regression", "setting": "[2]; single agent, D54 post-tumor challenge", "result": 17, "unit": "%"}, {"measurement": "growth of established RL tumor cells", "setting": "[2]; single agent", "result": "significantly impair the growth"}]}
